Drawing on ChEMBL document CHEMBL3991601, “The target landscape of clinical kinase drugs” (Science, 2017), this text covers Kd for 15 compounds.

Activity calls are given as the source filed them.

The term Kd denotes a measure of binding affinity in units of concentration.

The target of assay [1] is T1, ATP-dependent RNA helicase DDX42 (Homo sapiens, UniProt Q86XP3).
T1 sequence (Q86XP3 whole entry): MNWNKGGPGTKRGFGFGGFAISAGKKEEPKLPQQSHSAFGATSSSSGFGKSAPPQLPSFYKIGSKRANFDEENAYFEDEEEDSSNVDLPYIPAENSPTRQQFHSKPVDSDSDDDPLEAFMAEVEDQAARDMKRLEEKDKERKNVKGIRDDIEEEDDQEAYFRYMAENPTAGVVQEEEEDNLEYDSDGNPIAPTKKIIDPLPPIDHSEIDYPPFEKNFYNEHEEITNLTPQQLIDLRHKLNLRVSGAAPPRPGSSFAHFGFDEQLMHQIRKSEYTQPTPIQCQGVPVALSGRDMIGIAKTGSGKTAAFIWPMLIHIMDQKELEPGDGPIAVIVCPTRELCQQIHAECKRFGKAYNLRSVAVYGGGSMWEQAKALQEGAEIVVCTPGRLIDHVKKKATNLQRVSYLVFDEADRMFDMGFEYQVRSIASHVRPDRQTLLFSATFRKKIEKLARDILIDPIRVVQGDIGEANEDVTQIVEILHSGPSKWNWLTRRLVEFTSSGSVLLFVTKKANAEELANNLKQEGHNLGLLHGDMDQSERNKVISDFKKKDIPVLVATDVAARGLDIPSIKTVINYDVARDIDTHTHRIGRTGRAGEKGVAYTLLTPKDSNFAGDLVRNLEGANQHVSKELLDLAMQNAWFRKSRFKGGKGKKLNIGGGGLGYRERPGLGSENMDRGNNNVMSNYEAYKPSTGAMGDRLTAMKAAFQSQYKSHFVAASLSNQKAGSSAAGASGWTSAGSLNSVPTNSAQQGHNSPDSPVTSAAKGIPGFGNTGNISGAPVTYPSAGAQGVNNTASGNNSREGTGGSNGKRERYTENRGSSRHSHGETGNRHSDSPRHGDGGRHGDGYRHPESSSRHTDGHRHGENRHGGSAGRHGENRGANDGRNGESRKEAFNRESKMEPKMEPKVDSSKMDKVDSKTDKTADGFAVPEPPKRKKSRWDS

For a further assay, the target named is T2, Ephrin type-B receptor 2 (Homo sapiens, UniProt P29323).
T2 sequence (P29323 whole entry): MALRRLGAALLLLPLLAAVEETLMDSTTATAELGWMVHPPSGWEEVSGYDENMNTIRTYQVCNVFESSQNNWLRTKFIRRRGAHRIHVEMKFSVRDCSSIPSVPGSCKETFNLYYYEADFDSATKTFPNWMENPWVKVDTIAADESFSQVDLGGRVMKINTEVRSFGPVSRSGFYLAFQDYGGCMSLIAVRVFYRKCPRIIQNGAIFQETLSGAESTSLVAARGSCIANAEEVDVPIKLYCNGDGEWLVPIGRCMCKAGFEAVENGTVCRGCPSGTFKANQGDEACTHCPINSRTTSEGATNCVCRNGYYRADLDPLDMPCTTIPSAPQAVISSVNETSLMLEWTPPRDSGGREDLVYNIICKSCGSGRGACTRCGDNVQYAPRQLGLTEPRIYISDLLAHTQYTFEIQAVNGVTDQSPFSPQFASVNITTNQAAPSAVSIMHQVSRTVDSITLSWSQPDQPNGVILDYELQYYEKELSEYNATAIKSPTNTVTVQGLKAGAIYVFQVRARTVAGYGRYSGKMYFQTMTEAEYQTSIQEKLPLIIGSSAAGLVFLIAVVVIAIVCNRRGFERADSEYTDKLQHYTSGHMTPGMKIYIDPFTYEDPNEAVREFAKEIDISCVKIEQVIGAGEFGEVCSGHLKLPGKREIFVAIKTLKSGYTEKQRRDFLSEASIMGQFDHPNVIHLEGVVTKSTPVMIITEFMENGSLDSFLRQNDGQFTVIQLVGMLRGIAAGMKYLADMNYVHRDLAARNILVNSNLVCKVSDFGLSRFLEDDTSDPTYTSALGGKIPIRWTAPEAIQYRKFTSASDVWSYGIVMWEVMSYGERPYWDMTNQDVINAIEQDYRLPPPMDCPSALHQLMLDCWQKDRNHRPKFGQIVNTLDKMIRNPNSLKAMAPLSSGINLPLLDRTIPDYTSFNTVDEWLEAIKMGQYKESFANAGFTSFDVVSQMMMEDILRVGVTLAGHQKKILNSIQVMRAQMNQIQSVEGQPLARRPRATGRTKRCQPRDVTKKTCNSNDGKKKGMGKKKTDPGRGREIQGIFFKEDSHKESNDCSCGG

Assay [2] concerns the target Mitogen-activated protein kinase 3 (Homo sapiens, UniProt P27361).
Assay [3] addresses T3, Serine/threonine-protein kinase Nek2 (Homo sapiens, UniProt P51955).
T3 sequence (P51955 whole entry): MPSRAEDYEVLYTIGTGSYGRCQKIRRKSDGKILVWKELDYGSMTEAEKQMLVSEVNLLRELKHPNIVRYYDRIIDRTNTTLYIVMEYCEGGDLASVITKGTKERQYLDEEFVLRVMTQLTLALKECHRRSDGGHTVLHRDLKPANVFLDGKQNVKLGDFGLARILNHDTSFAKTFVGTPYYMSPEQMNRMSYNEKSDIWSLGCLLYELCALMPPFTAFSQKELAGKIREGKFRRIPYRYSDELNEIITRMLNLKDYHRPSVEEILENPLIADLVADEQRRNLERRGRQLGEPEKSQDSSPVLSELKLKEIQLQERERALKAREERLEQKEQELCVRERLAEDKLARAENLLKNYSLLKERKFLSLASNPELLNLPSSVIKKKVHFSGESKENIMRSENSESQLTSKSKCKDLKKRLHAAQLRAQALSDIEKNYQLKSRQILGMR

The target in assay [4] is Protein-tyrosine kinase 2-beta (Homo sapiens, UniProt Q14289).
For a further assay, the target named is T4, Rab-like protein 3 (Homo sapiens, UniProt Q5HYI8).
T4 sequence (Q5HYI8 whole entry): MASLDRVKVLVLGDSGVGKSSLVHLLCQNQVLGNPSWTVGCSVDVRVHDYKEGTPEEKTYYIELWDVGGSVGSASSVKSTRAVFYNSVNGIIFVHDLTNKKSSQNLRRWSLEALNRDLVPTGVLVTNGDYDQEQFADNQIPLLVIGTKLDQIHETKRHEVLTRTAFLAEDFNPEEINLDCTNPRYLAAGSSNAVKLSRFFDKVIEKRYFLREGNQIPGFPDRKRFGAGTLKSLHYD
Further: in the data inactive means no Kd found up to 30 µM.

Mitogen-activated protein kinase 3, sequence (P27361 whole entry): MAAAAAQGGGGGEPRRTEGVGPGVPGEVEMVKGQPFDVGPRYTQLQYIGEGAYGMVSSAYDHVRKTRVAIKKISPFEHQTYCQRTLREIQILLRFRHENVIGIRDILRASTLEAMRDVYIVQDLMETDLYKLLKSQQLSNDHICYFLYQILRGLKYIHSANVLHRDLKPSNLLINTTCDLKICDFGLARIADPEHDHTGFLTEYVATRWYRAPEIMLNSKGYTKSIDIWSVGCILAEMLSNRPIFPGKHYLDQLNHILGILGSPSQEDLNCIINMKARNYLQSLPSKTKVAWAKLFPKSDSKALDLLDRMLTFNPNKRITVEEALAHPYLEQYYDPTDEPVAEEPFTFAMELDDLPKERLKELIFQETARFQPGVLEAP
Protein-tyrosine kinase 2-beta, sequence (Q14289 whole entry): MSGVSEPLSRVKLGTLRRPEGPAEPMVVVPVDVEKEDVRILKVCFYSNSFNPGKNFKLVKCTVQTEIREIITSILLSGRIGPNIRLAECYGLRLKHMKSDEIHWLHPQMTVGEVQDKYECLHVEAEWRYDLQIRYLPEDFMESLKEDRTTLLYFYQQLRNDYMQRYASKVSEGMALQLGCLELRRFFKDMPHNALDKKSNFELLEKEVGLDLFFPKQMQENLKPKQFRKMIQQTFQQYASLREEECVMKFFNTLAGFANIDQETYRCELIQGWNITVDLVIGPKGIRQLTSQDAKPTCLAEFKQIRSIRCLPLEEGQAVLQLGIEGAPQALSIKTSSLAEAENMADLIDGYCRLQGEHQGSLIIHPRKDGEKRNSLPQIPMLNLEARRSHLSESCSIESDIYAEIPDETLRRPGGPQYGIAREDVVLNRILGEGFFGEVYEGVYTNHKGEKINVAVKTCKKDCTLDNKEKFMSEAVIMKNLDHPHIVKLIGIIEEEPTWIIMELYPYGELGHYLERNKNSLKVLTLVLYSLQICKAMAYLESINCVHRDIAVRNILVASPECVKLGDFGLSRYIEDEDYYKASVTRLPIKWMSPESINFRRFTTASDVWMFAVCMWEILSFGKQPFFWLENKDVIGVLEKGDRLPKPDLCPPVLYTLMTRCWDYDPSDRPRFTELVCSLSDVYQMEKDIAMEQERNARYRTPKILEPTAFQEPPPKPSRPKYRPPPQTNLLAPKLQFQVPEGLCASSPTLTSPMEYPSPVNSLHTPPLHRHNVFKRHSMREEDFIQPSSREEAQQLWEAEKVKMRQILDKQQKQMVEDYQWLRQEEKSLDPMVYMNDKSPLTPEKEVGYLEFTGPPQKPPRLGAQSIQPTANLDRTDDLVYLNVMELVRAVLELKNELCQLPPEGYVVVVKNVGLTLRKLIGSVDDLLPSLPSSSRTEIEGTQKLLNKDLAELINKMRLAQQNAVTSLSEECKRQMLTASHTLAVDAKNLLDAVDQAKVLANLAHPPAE

Take `CC[C@@H]1C(=O)N(C)c2cnc(Nc3ccc(C(=O)N[C@H]4CC[C@H](N5CCN(CC6CC6)CC5)CC4)cc3OC)nc2N1C(C)C` [VOLASERTIB]: the Kd (in assay [1]; at Ephrin type-B receptor 2; in assay [2]; in assay [3]; in assay [4]; on Rab-like protein 3) was > 30 µM (inactive) in each case.

`Cn1cc(-c2ccc(F)c(C(F)(F)F)c2)nc1C1CCN(c2ncnc3[nH]ncc23)CC1` [LY-2584702]: the Kd (in assay [1]; at Ephrin type-B receptor 2; in assay [2]; in assay [3]; in assay [4]; at Rab-like protein 3) was > 30 µM (inactive) in each case.

Consider `CCCS(=O)(=O)Nc1ccc(F)c(C(=O)c2c[nH]c3ncc(-c4ccc(Cl)cc4)cc23)c1F` [VEMURAFENIB], for which the Kd (in assay [1]; at Ephrin type-B receptor 2; in assay [2]; in assay [3]; in assay [4]; on Rab-like protein 3) was > 30 µM (inactive) each time.

Turning to `O=C(Nc1ccc(-c2ccnc(Nc3ccc(N4CCOCC4)cc3)n2)cc1)C1CCCN1` (stereo not given) [XL-019], the Kd (in assay [1]; on Ephrin type-B receptor 2; in assay [2]; in assay [3]; in assay [4]; on Rab-like protein 3) was > 30 µM (inactive) in each case.

On to `Cn1ncc(Cl)c1-c1cc(C(=O)N[C@H](CN)Cc2cccc(F)c2)sc1Cl` [AFURESERTIB], for which the Kd (in assay [1]; at Ephrin type-B receptor 2; in assay [2]; in assay [3]; in assay [4]; on Rab-like protein 3) was > 30 µM (inactive) throughout.

`CNC(=O)CN1CCC(Oc2cc3c(Nc4cccc(Cl)c4F)ncnc3cc2OC)CC1` [SAPITINIB]: the Kd in assay [1] is > 30 µM (inactive); at Ephrin type-B receptor 2 it was 2.28 µM; in assay [2], > 30 µM (inactive); in assay [3], > 30 µM (inactive); in assay [4], > 30 µM (inactive); on Rab-like protein 3 it was > 30 µM (inactive).

Take `CC(=O)Nc1cccc(-n2c(=O)n(C3CC3)c(=O)c3c(Nc4ccc(I)cc4F)n(C)c(=O)c(C)c32)c1` [TRAMETINIB]: the Kd (in assay [1]; on Ephrin type-B receptor 2; in assay [2]; in assay [3]; in assay [4]; on Rab-like protein 3) was > 30 µM (inactive) throughout.

Turning to `COC(=O)N[C@@H](C)CNc1nccc(-c2cn(C(C)C)nc2-c2cc(Cl)cc(NS(C)(=O)=O)c2F)n1` [ENCORAFENIB], the Kd (in assay [1]; on Ephrin type-B receptor 2; in assay [2]; in assay [3]; in assay [4]; on Rab-like protein 3) was > 30 µM (inactive) in each case.

On to `CNC(=O)c1ccc(-c2cnc3ncc(Cc4ccc5ncccc5c4)n3n2)cc1F` [CAPMATINIB], for which the Kd (in assay [1]; at Ephrin type-B receptor 2; in assay [2]; in assay [3]; in assay [4]; at Rab-like protein 3) was > 30 µM (inactive) each time.

As to `COC(=O)[C@@]1(O)C[C@H]2O[C@]1(C)n1c3ccccc3c3c4c(c5c6ccccc6n2c5c31)C(=O)NC4` [K-252A], the Kd is > 30 µM (inactive) in assay [1]; > 30 µM (inactive) at Ephrin type-B receptor 2; > 30 µM (inactive) in assay [2]; > 30 µM (inactive) in assay [3]; 1.36 µM (active) in assay [4]; > 30 µM (inactive) on Rab-like protein 3.

Regarding `CCS(=O)(=O)N1CC(CC#N)(n2cc(-c3ncnc4[nH]ccc34)cn2)C1` [BARICITINIB], the Kd (in assay [1]; on Ephrin type-B receptor 2; in assay [2]; in assay [3]; in assay [4]; on Rab-like protein 3) was > 30 µM (inactive) each time.

Regarding `CNS(=O)(=O)Nc1nccc(Cc2c(C)c3ccc(Oc4ncccn4)cc3oc2=O)c1F` [AVUTOMETINIB], the Kd (in assay [1]; at Ephrin type-B receptor 2; in assay [2]; in assay [3]; in assay [4]; on Rab-like protein 3) was > 30 µM (inactive) in each case.

In the case of `COc1ccc(-c2ccc3c(N4CCOC[C@@H]4C)nc(N4CCOC[C@@H]4C)nc3n2)cc1CO` [AZD-8055], the Kd (in assay [1]; at Ephrin type-B receptor 2; in assay [2]; in assay [3]; in assay [4]; on Rab-like protein 3) was > 30 µM (inactive) throughout.

`O=C(O)[C@]1(Cc2cccc(Nc3nccs3)n2)CC[C@@H](Oc2cccc(Cl)c2F)CC1` [MK-5108]: the Kd was > 30 µM (inactive) in assay [1]; > 30 µM (inactive) at Ephrin type-B receptor 2; > 30 µM (inactive) in assay [2]; > 30 µM (inactive) in assay [3]; 0.343 µM (active) in assay [4]; > 30 µM (inactive) on Rab-like protein 3.

Regarding `Cc1c(F)cc(C(=O)NC2CC2)cc1-c1ccc(C(=O)NCC(C)(C)C)cn1` [LOSMAPIMOD], the Kd (in assay [1]; at Ephrin type-B receptor 2; in assay [2]; in assay [3]; in assay [4]; at Rab-like protein 3) was > 30 µM (inactive) in each case.
